Results published in patent US3962256A, “2-Aminomethyl benzimidazole derivatives” (Delalande S.A., priority 1973, dated 1976).

What was measured:
[1] = Lethal doses / percentage mortality, oral; assay type: in vivo; conditions: 2 000 mg/Kg/p.o.; 2000 mg/kg
Text: As a result of a comparison between the pharmacologically active doses mentioned above and the lethal doses listed in the following Table XII, the difference between said doses is sufficiently great to permit the utilisation of the compounds of formula (I) in therapeutics.

[2] = system: oedema caused by the sub-plantar injection of carraghenin; assay: Antiinflammatory: reduction of sub-plantar oedema caused by carraghenin, rat; assay type: in vivo; conditions: 100 mg/Kg/p.o.
Description: These properties are shown by a diminution of the local oedema caused by the sub-plantar injection of a phlogogenic agent, such as carraghenin, in the rat following the oral administration of compounds of formula (I).
The following Table VI lists, by way of example, the percentage reduction of the oedems caused by the sub-plantar injection of carraghenin, resulting from the administration of 100 mg/Kg/p.o. of different compounds of formula (I).

[3] = system: gastric ulcers, provoked in a rat by tying of the pylorus (Shay ulcers); assay: Antiulcerous: reduction of Shay ulcers (tying of the pylorus); assay type: in vivo; conditions: 50 mg/Kg/i.d.
Description: The compounds of formula (I) administered by intraduodenal means reduce the extent of gastric ulcers, provoked in a rat by tying of the pylorus (Shay ulcers).
By way of example, there is listed in the following Table IX, the results obtained by the administrations of 50 mg/Kg/i.d. of different compounds of formula (I).

[4] = system: isolated ileum of the guinea-pig; assay: Antihistaminic: opposing histamine contraction of isolated ileum; conditions: promethazine as standard
Description: The compounds of formula I, introduced in the conserving medium, are capable of opposing the contractural action of histamine on the isolated ileum of the guinea-pig. This activity is evaluated by taking promethazine as standard.

[5] = system: bronchoconstriction provoked in the guinea-pig by acetylcholine; assay: Antibronchoconstrictive and anticholinergic: bronchoconstriction by intravenous acetylcholine, Konzett method; assay type: in vivo; conditions: 100 mg/kg/i.d.
Text: Injected by intraveinous or intraduodenal means, the compounds of formula (I) are capable of opposing the bronchoconstriction provoked in the guinea-pig by the itraveinous injection of acetylcholine by the Konzett method.
By way of example, the following Table VII lists the results obtained by the administration of different compounds of formula (I)

[6] = system: volume of urine emitted; assay: Diuretic: augmentation of urinary elimination; assay type: in vivo; conditions: 25 mg/Kg/p.o., mouse, 6 hours
Description: The compounds of formula (I), administered by oral means to the mouse, simultaneously with a volume of 1 ml. of an isotonic solution of sodium chloride per 25 g of the corporeal weight of the mouse, are capable of provoking an augmentation of the volume of urine emitted by reference to control animals, the volume being measured for 6 hours following administration.
By way of example, the following Table XI lists the results obtained by the administration of 25 mg/Kg/p.o. of different compounds of formula (I).

[7] = system: excursions into the escape enclosure; assay: Central nervous system stimulation: excursions in the escape test; assay type: in vivo; conditions: 100 mg/Kg/p.o., mouse
Description: The compounds of formula (I), administered by oral means to the mouse, provoke an augmentation of the number of excursions into the escape enclosure.
Thus, following the administration of 100 mg/Kg/p.o. of the compounds of Code Nos. 72 457 and 72 736, an augmentation of 30% in the number of excursions in the escape test, is observed.

[8] = system: rat suffering from high blood pressure; assay: Antihypertensive: return of systolic arterial pressure to normal in rats with high blood pressure; assay type: in vivo; conditions: 200 mg/Kg/p.o.
Text: The compounds of formula (I), administered by oral means to a rat suffering from high blood pressure, are capable of lowering the systolic arteriel pressure.
By way of example, there is provided in the following Table IV the results obtained by administration of different compounds of formula (I).

For O=C(CCn1c(CN2CCCC2)nc2ccccc21)c1ccc(Cl)cc1 [72 366], the Percentage mortality [1] was 0%, the “Percentage reduction of sub-plantar oedema” value [2] was 60% and the “Percentage reduction of Shay ulcers” value [3] was 40%. For the same molecule, the “antihistaminic activity relative to promethazine” value [4] was “equivalent activity to that of promethazine”.

For Cc1ccc(C(=O)CCn2c(CN(C)C)nc3ccccc32)cc1 [72 457], the “Percentage inhibition of bronchoconstriction” value [5] was 80%, the Percentage mortality [1] was 0% and the “Percentage augmentation of urinary elimination” value [6] was 45%. For the same molecule, the “augmentation in the number of excursions in the escape test” value [7] was 30%, the “Percentage of rats with high blood pressure whose systolic arteriel pressure is returned to normal” value [8] was 50% and the “Percentage reduction of Shay ulcers” value [3] was 30%.
